One block for each compound: values may come before it. Calls of active or inactive are those of the source. The rule behind the calls is not given here.
How the values were obtained:
[1] = Tmax in female Sprague-Dawley rat at 10 mg/kg, po measured up to 24 hrs by LC-MS analysis; format: ADME, organism-based; conditions: in vivo
[2] = system: Mast/stem cell growth factor receptor Kit (Homo sapiens), P10721 [V560G]; test: Inhibition of recombinant human C-Kit V560G mutant (544 to end residues) assessed as residual activity at 0.5 uM poly(Glu, Tyr) 4:1 as substrate incubated 40 mins in presence of [gamma-33ATP] by scintillation counting based radiometry assay relative to control
Sequence of Mast/stem cell growth factor receptor Kit (Homo sapiens), P10721 [V560G] (P10721 whole entry V560G): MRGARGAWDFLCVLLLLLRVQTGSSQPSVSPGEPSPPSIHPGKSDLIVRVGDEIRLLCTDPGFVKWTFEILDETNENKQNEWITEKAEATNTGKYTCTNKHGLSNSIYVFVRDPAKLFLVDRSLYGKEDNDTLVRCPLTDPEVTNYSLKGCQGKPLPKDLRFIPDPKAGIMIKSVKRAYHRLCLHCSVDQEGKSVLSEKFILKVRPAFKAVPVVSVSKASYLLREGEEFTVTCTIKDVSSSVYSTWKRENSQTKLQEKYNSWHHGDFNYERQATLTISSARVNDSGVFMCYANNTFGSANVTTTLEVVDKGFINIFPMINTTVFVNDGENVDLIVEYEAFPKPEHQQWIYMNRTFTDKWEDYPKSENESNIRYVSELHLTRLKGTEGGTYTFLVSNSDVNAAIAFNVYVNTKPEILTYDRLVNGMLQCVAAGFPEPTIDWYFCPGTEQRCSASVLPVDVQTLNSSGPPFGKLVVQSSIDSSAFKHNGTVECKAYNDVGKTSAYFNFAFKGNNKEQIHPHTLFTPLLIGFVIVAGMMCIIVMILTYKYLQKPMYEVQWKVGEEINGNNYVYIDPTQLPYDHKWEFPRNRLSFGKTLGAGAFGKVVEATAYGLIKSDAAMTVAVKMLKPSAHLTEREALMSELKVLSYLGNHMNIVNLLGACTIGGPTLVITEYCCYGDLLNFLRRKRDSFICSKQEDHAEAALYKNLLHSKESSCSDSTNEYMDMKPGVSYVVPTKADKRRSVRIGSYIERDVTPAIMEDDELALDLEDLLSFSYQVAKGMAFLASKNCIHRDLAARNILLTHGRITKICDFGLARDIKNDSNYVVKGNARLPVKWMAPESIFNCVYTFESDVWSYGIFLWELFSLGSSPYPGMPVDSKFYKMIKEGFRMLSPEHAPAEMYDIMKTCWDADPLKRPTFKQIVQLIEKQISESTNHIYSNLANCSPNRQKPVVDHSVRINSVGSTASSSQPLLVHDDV

BaF3 [3] = test: Antitumor activity against mouse BaF3 cells transfected with ETV6-NTRK3 xenografted in mouse assessed as tumor growth inhibition at 5 to 20 mg/kg, po administered once daily for 21 days and measured twice weekly; conditions: dose 5-20 mg/kg, time 21.0 day
[4] = target: NT-3 growth factor receptor (Homo sapiens, UniProt Q16288); test: Inhibition of human TrkC (510 to end residues) assessed as residual activity at 0.5 uM using GEEPLYWSFPAKKK as substrate measured after 40 mins in presence of [gamma33P]ATP by scintillation counting method relative to control
[5] = system: Hepatocyte growth factor receptor (Homo sapiens), P08581 [Y1248H]; test: Inhibition of recombinant human Met Y1248H mutant (974 to end residues) assessed as residual activity at 0.5 uM using KKKGQEEEYVFIE as substrate incubated for 40 mins in presence of [gamma-33P]-ATP by scintillation counting method relative to control
[6] = Toxicity in […] xenografted with mouse BaF3 cells transfected with ETV6-NTRK3 assessed as weight loss at 20 mg/kg, po administered once daily for 21 days and measured twice weekly; format: organism-based; conditions: in vivo, 504 h, time 21 day
[7] = target: BDNF/NT-3 growth factors receptor (Homo sapiens) (UniProt Q16620); test: Inhibition of human TrkB (455 to end residues) assessed as residual activity at 0.5 uM using poly(Glu, Tyr) 4:1 as substrate measured after 40 mins in presence of [gamma33P]ATP by scintillation counting method relative to control
[8] = Toxicity in mouse xenografted with mouse BaF3 cells transfected with ETV6-NTRK3-G623R mutant assessed as weight loss at 20 mg/kg, po administered once daily for 21 days and measured twice weekly; conditions: in vivo, 504 h
[9] = target: Fibroblast growth factor receptor 2 (Homo sapiens) (UniProt P21802); test: Inhibition of recombinant human FGFR2 (456 to 770 residues) assessed as residual activity at 0.5 uM using poly(Glu, Tyr) 4:1 as substrate at 40 mins in presence of [gamma-33ATP] by scintillation counting based radiometry assay relative to control
[10] = system: Epidermal growth factor receptor (Homo sapiens), P00533 [L858R]; test: Inhibition of recombinant human EGFR L858R mutant (696 to end residues) assessed as residual activity at 0.5 uM using poly(Glu, Tyr) 4:1 as substrate at 40 mins in presence of [gamma-33ATP] by scintillation counting based radiometry assay relative to control
[11] = target: Macrophage-stimulating protein receptor (Homo sapiens) (UniProt Q04912); test: Inhibition of recombinant human Ron (983 to end residues) assessed as residual activity at 0.5 uM using GGMEDIYFEFMGGKKK as substrate incubated for 40 mins in presence of [gamma33P]ATP by scintillation counting based radiometry assay relative to control
Sequence of Macrophage-stimulating protein receptor (Homo sapiens) (Q04912 25-304 limits assumed): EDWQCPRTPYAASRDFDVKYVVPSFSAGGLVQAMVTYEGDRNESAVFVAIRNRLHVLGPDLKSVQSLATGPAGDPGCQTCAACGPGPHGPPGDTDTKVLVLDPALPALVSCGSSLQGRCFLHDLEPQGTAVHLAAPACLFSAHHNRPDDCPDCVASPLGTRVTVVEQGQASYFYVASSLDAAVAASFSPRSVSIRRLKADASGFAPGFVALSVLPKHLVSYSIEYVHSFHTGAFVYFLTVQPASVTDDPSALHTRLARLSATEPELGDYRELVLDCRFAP
Sequence of Macrophage-stimulating protein receptor (Homo sapiens) (Q04912 310-1400 limits assumed): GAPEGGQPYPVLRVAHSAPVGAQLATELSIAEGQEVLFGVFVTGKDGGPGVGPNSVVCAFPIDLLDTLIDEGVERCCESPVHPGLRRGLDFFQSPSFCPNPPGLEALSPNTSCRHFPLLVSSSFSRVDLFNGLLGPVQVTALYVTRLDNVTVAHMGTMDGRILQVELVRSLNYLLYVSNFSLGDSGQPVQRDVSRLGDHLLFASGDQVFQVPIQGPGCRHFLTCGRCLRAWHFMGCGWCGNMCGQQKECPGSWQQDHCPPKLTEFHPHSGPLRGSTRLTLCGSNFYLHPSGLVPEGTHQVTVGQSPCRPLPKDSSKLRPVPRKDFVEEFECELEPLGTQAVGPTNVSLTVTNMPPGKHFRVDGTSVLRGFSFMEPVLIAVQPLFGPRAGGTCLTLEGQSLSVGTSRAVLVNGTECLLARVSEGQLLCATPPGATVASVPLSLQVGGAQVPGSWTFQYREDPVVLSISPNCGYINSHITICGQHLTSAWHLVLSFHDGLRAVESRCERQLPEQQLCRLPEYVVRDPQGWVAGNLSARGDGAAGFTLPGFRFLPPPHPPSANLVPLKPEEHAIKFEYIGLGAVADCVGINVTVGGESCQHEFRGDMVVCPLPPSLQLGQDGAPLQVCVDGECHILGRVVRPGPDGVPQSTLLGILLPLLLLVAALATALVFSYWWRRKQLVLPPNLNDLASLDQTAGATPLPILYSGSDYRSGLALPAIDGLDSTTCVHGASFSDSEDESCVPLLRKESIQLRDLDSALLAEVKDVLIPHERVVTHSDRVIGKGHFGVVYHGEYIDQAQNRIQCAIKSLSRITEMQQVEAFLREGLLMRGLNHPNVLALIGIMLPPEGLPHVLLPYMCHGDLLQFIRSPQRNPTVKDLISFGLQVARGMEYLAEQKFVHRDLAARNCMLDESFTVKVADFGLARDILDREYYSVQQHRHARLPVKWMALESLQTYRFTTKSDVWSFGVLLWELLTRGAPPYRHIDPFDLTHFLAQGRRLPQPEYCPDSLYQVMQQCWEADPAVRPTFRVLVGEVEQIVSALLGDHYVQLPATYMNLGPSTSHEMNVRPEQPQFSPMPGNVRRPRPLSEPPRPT

[12] = target: Fibroblast growth factor receptor 3 (Homo sapiens) (UniProt P22607); test: Inhibition of recombinant human FGFR3 (447 to 761 residues) assessed as residual activity at 0.5 uM using poly(Glu, Tyr) 4:1 as substrate at 40 mins in presence of [gamma-33ATP] by scintillation counting based radiometry assay relative to control
Sequence of Fibroblast growth factor receptor 3 (Homo sapiens) (P22607 23-806 limits assumed): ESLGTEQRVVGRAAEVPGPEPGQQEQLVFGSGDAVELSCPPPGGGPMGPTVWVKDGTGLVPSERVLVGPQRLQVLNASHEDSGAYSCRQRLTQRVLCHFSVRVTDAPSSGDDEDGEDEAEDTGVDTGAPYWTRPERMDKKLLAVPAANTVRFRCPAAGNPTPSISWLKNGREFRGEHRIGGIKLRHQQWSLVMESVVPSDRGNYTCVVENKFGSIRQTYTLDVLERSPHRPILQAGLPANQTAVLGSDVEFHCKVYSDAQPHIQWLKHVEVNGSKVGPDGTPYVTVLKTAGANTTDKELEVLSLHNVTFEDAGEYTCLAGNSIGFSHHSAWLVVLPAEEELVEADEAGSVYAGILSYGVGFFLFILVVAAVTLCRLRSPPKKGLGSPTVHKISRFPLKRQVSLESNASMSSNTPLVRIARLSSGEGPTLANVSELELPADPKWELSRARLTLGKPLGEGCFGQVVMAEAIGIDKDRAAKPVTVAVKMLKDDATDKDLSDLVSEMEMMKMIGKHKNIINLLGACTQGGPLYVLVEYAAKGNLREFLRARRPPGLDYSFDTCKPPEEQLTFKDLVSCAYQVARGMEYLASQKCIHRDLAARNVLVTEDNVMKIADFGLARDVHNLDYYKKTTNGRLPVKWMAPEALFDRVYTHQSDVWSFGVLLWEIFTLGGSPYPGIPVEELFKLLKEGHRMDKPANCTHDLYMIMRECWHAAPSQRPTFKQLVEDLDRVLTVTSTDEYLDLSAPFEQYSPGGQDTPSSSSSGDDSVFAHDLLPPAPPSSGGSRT

BaF3 [13] = test: Antitumor activity against mouse BaF3 cells transfected with ETV6-NTRK3-G623R mutant xenografted in mouse assessed as tumor growth inhibition at 5 to 20 mg/kg, po administered once daily for 21 days and measured twice weekly; conditions: dose 5-20 mg/kg, time 21.0 day
BaF3 [14] = test: Antitumor activity against mouse BaF3 cells transfected with LMNA-NTRK1-G595R mutant xenografted in mouse assessed as tumor growth inhibition at 5 to 20 mg/kg, po administered once daily for 21 days and measured twice weekly; conditions: dose 5-20 mg/kg, time 21.0 day
[15] = Toxicity in […] xenografted with mouse BaF3 cells transfected with LMNA-NTRK1 assessed as weight loss at 20 mg/kg, po administered once daily for 21 days and measured twice weekly; format: organism-based; conditions: in vivo, 504 h, time 21 day
[16] = target: Vascular endothelial growth factor receptor 2 (Homo sapiens) (UniProt P35968); test: Inhibition of human KDR (790 to end residues) assessed as residual activity at 0.5 uM using myelin basic protein as substrate after 40 mins by [gamma-33ATP] radiometric assay relative to control
Sequence of Vascular endothelial growth factor receptor 2 (Homo sapiens) (P35968 whole entry): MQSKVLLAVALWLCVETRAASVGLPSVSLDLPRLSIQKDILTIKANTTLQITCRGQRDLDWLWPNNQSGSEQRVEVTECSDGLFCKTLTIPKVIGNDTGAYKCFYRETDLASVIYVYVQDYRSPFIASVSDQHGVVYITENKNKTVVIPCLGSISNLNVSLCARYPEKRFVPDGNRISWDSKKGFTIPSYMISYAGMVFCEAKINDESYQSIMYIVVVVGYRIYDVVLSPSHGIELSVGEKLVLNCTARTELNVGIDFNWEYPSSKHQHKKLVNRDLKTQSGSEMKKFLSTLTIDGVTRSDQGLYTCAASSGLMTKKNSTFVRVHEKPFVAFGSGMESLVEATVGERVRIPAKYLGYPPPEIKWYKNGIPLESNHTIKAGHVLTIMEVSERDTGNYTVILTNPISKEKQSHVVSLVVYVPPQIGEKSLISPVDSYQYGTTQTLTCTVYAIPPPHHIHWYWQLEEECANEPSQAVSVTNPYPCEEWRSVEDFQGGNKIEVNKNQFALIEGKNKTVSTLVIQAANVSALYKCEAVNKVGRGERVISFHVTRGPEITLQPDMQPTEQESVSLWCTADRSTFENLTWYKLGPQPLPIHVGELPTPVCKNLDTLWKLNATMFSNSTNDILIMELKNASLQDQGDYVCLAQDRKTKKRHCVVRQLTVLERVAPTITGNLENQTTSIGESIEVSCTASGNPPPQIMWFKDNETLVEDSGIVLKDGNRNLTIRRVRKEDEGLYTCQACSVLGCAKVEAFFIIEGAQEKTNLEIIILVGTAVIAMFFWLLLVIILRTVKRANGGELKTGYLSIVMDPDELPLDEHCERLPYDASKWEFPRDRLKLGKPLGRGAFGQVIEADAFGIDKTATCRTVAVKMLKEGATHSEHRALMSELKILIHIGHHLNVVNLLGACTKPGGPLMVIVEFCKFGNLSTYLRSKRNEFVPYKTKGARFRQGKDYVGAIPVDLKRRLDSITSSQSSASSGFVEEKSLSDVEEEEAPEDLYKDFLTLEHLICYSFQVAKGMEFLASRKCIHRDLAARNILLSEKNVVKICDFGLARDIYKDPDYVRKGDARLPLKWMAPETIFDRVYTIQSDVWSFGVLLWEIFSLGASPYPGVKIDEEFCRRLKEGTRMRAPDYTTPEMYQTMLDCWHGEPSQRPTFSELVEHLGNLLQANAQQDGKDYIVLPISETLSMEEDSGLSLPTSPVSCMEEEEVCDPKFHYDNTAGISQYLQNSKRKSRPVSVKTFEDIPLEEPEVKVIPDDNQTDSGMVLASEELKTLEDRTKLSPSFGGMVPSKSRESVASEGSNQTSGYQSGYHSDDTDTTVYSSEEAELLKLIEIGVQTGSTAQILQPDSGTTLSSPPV

[17] = Toxicity in mouse xenografted with mouse BaF3 cells transfected with LMNA-NTRK1-G595R mutant assessed as weight loss at 20 mg/kg, po administered once daily for 21 days and measured twice weekly; conditions: in vivo, 504 h
[18] = target: Receptor-interacting serine/threonine-protein kinase 1 (Homo sapiens) (UniProt Q13546); test: Inhibition of recombinant human RIPK1 (8 to 322 residues) assessed as residual activity at 0.5 uM using myelin basic protein as substrate incubated for 40 mins in presence of [gamma33P]ATP by scintillation counting based radiometry assay relative to control
[19] = Toxicity in […] xenografted with mouse BaF3 cells transfected with LMNA-NTRK1-G595R mutant assessed as death at 100 mg/kg, po administered once daily for 21 days and measured twice weekly; format: organism-based; conditions: in vivo, 504 h, time 21 day
[20] = Clearance in Sprague-Dawley rat at 3 mg/kg measured up to 24 hrs by LC/MS/MS analysis; format: ADME, organism-based; conditions: in vivo
[21] = AUC (0 to t) in Sprague-Dawley rat at 3 mg/kg measured up to 24 hrs by LC-MS/MS analysis; format: ADME, organism-based; parameters: dose 3 mg/kg, time <=24; conditions: in vivo
BaF3 [22] = test: Antitumor activity against mouse BaF3 cells transfected with LMNA-NTRK1-G595R mutant xenografted in mouse assessed as tumor growth inhibition at 100 mg/kg, po administered once daily for 21 days and measured twice weekly; conditions: time 21.0 day
[23] = Toxicity in mouse xenografted with mouse BaF3 cells transfected with LMNA-NTRK1 assessed as weight loss at 100 mg/kg, po administered once daily for 21 days and measured twice weekly; conditions: in vivo, 504 h
[24] = C0 in Sprague-Dawley rat at 3 mg/kg measured up to 24 hrs by LC/MS/MS analysis; format: ADME, organism-based; conditions: in vivo
BaF3 [25] = test: Antitumor activity against mouse BaF3 cells transfected with ETV6-NTRK3-G623R mutant xenografted in mouse assessed as tumor growth inhibition at 100 mg/kg, po administered once daily for 21 days and measured twice weekly; conditions: time 21.0 day

Tmax [1]: 40 min
Activity [2]: 109%
Activity [4]: -3%
Activity [5]: 89%
Activity [7]: -1%
Activity [9]: 93%
Activity [10]: 91%
Activity [11]: 112%
Activity [12]: 96%
Activity [16]: 108%
Activity [18]: 102%
Structure (SMILES): O=C1NC2(CC2)COc2ncc(F)cc2[C@H]2COCCN2c2ccn3ncc1c3n2
Activity (BaF3 [3]): Active
Activity [6]: Toxic
Activity [8]: Toxic
Activity (BaF3 [13]): Active
Activity (BaF3 [14]): Active
Activity [15]: Toxic
Activity [17]: Toxic

Structure (SMILES): C[C@@H]1CCc2ncc(F)cc2[C@H]2CCCN2c2ccn3ncc(c3n2)C(=O)N1 [SELITRECTINIB]
Activity [19]: Toxic
clearance [20]: 11.8 mL/min/kg
AUC(0-t) at 24 h [21]: 11.1 µM·h
Activity (BaF3 [22]): Active
Activity [23]: Toxic
C0 [24]: 23.779 µM
Activity (BaF3 [25]): Active

Reference: ChEMBL document CHEMBL5034019, “Discovery of the Next-Generation Pan-TRK Kinase Inhibitors for the Treatment of Cancer” (J Med Chem, 2021)
